Where a name gives a salt, the structure may show the parent alone. Values belong to the compound of their own block, whether it stands above or below them.
What was measured:
Type in all cases: physicochemical
[1] = Solubility in simulated biological fluid (FaSSGF and FaSSIF) at 37° C., HPLC; pH of filtrate, XRPD of filter cake; settings: for pH (0 h) / Concentration / pH (24 h) / XRPD (filter cake, crystal form): 37° C.; for pH (24 h): filtrate; for XRPD (filter cake, crystal form): up to 24 hours; for times more soluble than the free acid (Form II): 0.5-hour mark
Description: (§1) Approximately between 15 mg and 24 mg of sample was suspended in 5 mL or 8 mL of FaSSGF or FaSSIF, respectively. The resulting suspension was shaken at 700 rpm with a QQMSC-100 shaker at 37° C. The suspension was sampled and filtered at certain time intervals, which was achieved by sampling 1000 μL of each suspension which was then filtered and diluted, diluting the resulting filtrate for HPLC analysis to assess solubility. The pH of the filtrate was measured, and the filter cake was analyzed by XRPD.
as §1, with “Approximately” for “Approximately between”, “mg to” for “mg and”, “5” for “5 mL”, “suspension” for “suspension which”, “was” for “was then”
Approximately 15 mg to 24 mg of sample was suspended in 5 or 8 mL of FaSSGF or FaSSIF, respectively. The resulting suspension was shaken at 700 rpm with a QQMSC-100 shaker at 37° C. The suspension was sampled and filtered in certain time interval, which was achieved by sampling 1000 μL of each suspension was filtered and diluted, diluting the resulting filtrate for HPLC analysis to assess solubility. The pH of the filtrate was measured, and the filter cake was analyzed by XRPD.

[2] = Solid-state stability (60° C./closed and 40° C./75% relative humidity open, up to seven days; HPLC purity, XRPD); settings: for physical and chemical stability: both closed (60° C.) and open (40° C./75% RH) conditions for seven days
Description: HPLC method for stability and solubility testing is listed below.
• Column: Ascentis® Express C18 4.6*150 mm*2.7 μm • Mobile Phase A: 0.05% trifluoroacetic acid in water • Mobile Phase B: Methanol • Gradient (T/B %): 0/10, 10/100, 13.5/10, 15/10 • Column Temperature: 40° C. • Detector: DAD; 220 nm • Flow rate: 1.0 mL/min • Injection volume: 1 μL • Concentration: 1 mg/mL • Run time: 15 minutes • Diluent: Methanol:Water 9:1 (v/v)
The solid-state stability of Form III of the potassium salt was performed using the following protocol: • (1) A sample of Form III of the potassium salt was placed at 60° C./closed and 40° C./75% relative humidity (open) conditions for up to seven days. At the onset of the test (day 0) and day 7 of the test, the sample was dissolved in a diluent to prepare a 1 mg/mL solution for HPLC purity analysis. The solid sample was analyzed by XRPD to assess the crystal form of each solid at day 7. […] The XRPD data confirmed the physicochemical stability of Form III of the potassium salt under both closed and open conditions. […]

[3] = Dynamic vapor sorption (DVS); settings: for DVS weight gain: 25° C.
Description: Moisture sorption/desorption data was collected on a Vsorp Dynamic Moisture Sorption Analyzer (ProUmid GmbH & Co. KG, Germany). The sample was placed into a tared sample chamber and automatically weighed.
• Equilibrium Condition: 0.01%/40 min • Time between weighing cycles: 10 minutes • Minimum time per climate cycle: 50 minutes • Maximum time per climate cycle: 2.0 hour • Balanced condition: 25° C. at 60% […] for 4 hours • Sample temperature: 25° C. • Adsorption: 70, 80, 90 • Desorption: 80, 70, 60, 50, 40, 30, 20, 10, 0 • Adsorption: 10, 20, 30, 40, 50, 60

[4] = Water activity study of the crystalline potassium salt forms (acetone/water suspension, XRPD); settings: for Relative stability of crystalline forms: versus Form III of the potassium salt
Description: A water activity study of the potassium salt forms was conducted in two groups: (i) Form I and Form III of the potassium salt, and (ii) Form II and Form III of the potassium salt.
Each suspension was shaken at 700 rpm in a shaker at 25° C., 35° C., 45° C., and 50° C., and the sample was analyzed by XRPD.

[5] = Heating of potassium salt forms (XRPD/DSC after heating)

pH (0 h) ([1]; FaSSGF): 1.60
Concentration ([1]; FaSSGF, 0.5 h): 200 ng/mL
Concentration ([1]; FaSSGF, 2.0 h): 300 ng/mL
Concentration ([1]; FaSSGF, 24 h): 1500 ng/mL
pH (24 h) ([1]; FaSSGF): 1.57
XRPD (filter cake, crystal form) ([1]; FaSSGF): Unchanged
pH (0 h) ([1]; FaSSIF): 6.50
Concentration ([1]; FaSSIF, 0.25 h): 3000 ng/mL
Concentration ([1]; FaSSIF, 0.5 h): 1400 ng/mL
Concentration ([1]; FaSSIF, 0.75 h): 1300 ng/mL
Concentration ([1]; FaSSIF, 1.0 h): 1300 ng/mL
Concentration ([1]; FaSSIF, 2.0 h): 1600 ng/mL
Concentration ([1]; FaSSIF, 24 h): 4000 ng/mL
pH (24 h) ([1]; FaSSIF): 6.49
XRPD (filter cake, crystal form) ([1]; FaSSIF): Unchanged
Purity (Area %) 220 nm ([2]; 0 day): 99.96 Area %
Purity (Area %) 220 nm ([2]; 40° C./75% RH (open), 7 days): 99.94 Area %
Purity (Area %) 220 nm ([2]; 60° C./closed, 7 days): 99.94 Area %
DVS weight gain ([3]; 0 to 90% relative humidity): ~0%
DVS weight gain ([3]; 0 to 90% relative humidity, listed as Form II of the free acid): almost no weight gain
Hygroscopicity (DVS) ([3]; class by weight gain to 80% relative humidity): Non-hygroscopic
XRPD pattern after DVS testing ([3]; listed as Form II of the free acid): No changes
Hygroscopicity (DVS) ([3]; relative to the class slightly hygroscopic): below slightly hygroscopic
Compound: CNC(=O)c1ncn2cc(-c3c(F)ccc(NS(=O)(=O)c4cc(Cl)cnc4OC)c3F)ncc12 [Free acid Form II, 6-(3-((5-chloro-2-methoxypyridine)-3-sulfonamido)-2,6-difluorophenyl)-N-methylimidazo[1,5-a]pyrazine-1-carboxamide]
physical and chemical stability [2]: maintained physical and chemical stability

Time of conversion to Form III of the potassium salt ([4]; KF wt. %>0.19, 25-50° C., KF wt. %~0.1, 25° C. in acetone/water): ≤ 1 days
Relative stability of crystalline forms ([4]; KF wt. %≤0.1 at 35-50° C. in acetone/water): more stable
Stability of the hydrate ([5]; 24° C.±2° C. and 50-80% relative humidity): stable
Changes to XRPD pattern or DSC thermogram upon heating ([5]; heating to 180° C.): No changes
Compound: CNC(=O)c1ncn2cc(-c3c(F)ccc(NS(=O)(=O)c4cc(Cl)cnc4OC)c3F)ncc12 [Potassium salt Form I, 6-(3-((5-chloro-2-methoxypyridine)-3-sulfonamido)-2,6-difluorophenyl)-N-methylimidazo[1,5-a]pyrazine-1-carboxamide]

Relative stability of crystalline forms ([4]; aw≥0.93 at temperatures≤25° C.): more stable
Changes to XRPD patterns and DSC thermograms after heating ([5]; heating to 160° C.): slight change
Compound: CNC(=O)c1ncn2cc(-c3c(F)ccc(NS(=O)(=O)c4cc(Cl)cnc4OC)c3F)ncc12 [Potassium salt Form II, 6-(3-((5-chloro-2-methoxypyridine)-3-sulfonamido)-2,6-difluorophenyl)-N-methylimidazo[1,5-a]pyrazine-1-carboxamide]

times more soluble than the free acid (Form II) ([1]; FaSSGF): about 230 times
times more soluble than the free acid (Form II) ([1]; FaSSIF): about 100 times
Purity (Area %) 220 nm ([2]; 0 day): 99.87 Area %
Purity (Area %) 220 nm ([2]; 40° C./75% RH (open), 7 days): 99.87 Area %
Purity (Area %) 220 nm ([2]; 60° C./closed, 7 days): 99.85 Area %
DVS weight gain ([3]; 0 to 30% relative humidity): 2.6%
DVS weight gain ([3]; 0 to 30% relative humidity, listed as Form III of the sodium salt): around 2.6%
DVS weight gain ([3]; 0 to 80% relative humidity): 3.3%
DVS weight gain ([3]; 0 to 90% relative humidity): 4.7%
DVS weight gain ([3]; 60 to 80% relative humidity, listed as Form III of the sodium salt): around 0.7%
DVS weight gain ([3]; 80 to 90% relative humidity): 1.4%
XRPD pattern after DVS testing ([3]; listed as Form III of the sodium salt): did not change
Compound: CNC(=O)c1ncn2cc(-c3c(F)ccc(NS(=O)(=O)c4cc(Cl)cnc4OC)c3F)ncc12 [Sodium salt Form III, 6-(3-((5-chloro-2-methoxypyridine)-3-sulfonamido)-2,6-difluorophenyl)-N-methylimidazo[1,5-a]pyrazine-1-carboxamide]
physical and chemical stability [2]: maintained physical and chemical stability

Reference: patent US20260224563A1, “CRYSTALLINE FORMS OF 6-(3-((5-CHLORO-2-METHOXYPYRIDINE)-3-SULFONAMIDO)-2,6-DIFLUOROPHENYL)-N-METHYLIMIDAZO[1,5-A]PYRAZINE-1-CARBOXAMIDE AND METHODS FOR USING THE SAME” (HIBERCELL, INC., priority 2023, published 2026)
